Molecules are shown by their SMILES.

For assay [1], the target named is T1, FAAH (Homo sapiens, UniProt O00519).
T1 construct: The full length FAAH was subcloned into the mammalian expression vector, pcDEF.neo; expressed in transfected cells; cDNA from Origene
T1 sequence (O00519 1-579): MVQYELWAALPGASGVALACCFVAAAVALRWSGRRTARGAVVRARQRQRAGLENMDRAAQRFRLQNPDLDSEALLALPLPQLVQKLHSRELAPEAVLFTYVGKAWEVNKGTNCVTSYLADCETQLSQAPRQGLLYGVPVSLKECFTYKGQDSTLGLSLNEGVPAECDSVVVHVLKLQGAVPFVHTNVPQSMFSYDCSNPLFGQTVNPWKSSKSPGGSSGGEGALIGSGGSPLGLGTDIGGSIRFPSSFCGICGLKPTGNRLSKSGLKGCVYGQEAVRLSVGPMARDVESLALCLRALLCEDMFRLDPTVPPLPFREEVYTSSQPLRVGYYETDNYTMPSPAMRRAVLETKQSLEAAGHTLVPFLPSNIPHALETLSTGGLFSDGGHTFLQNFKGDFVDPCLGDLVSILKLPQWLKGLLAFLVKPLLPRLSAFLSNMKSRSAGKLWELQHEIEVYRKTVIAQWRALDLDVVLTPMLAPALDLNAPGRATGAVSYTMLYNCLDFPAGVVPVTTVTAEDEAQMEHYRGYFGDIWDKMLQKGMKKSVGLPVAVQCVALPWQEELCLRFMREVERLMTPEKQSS
Briefly: FAAH enzyme assay, lysate of CHO cells expressing human FAAH. In kind it is biochemical. To be noted: CHO cell lysate, read-out: Human Lysate. From the text: (§1) To assist in assay development stable cell lines for human, murine and rat full length FAAH were developed. Human FAAH cDNA (Accession No: NM_001441.1) was purchased from Origene (Rockville, Md.). The full length FAAH was subcloned into the mammalian expression vector, pcDEF.neo, using XbaI and […] restriction sites and used for stable cell line generation.
CHO cells expressing FAAH were used to prepare either crude cell lysate or microsome fractions. To harvest cells, tissue culture media was decanted, the monolayer washed three times with Ca^++Mg^++ free PBS and cells recovered after 15 min in enzyme free dissociation media (Millipore Corp, Billerica, Mass.). Cells were collected by centrifuging at 2000 rpm for 15 min. and the cell pellet re-suspended with 50 mM HEPES (pH 7.4) containing 1 mM EDTA and the protease inhibitors aprotinin (1 mg/ml) and leupeptin (100 μM). The suspension was sonicated at 4° C. and the cell lysate recovered after centrifuging at 12,000×g (14,600 rpm, SS34 rotor) for 20 min at 4° C. to form a crude pellet of cell debris, nuclei, peroxisomes, lysosomes, and mitochondria; the supernatant or cell lysate was used for FAAH enzyme assay. In some cases, microsomes fractions enriched in FAAH were prepared by centrifuging the cell lysate further at 27,000 rpm (100,000×g) in SW28 rotor for 50 minutes at 4° C. The pellet containing FAAH-enriched microsomes was re-suspend in 50 mM HEPES, (pH 7.4) 1 mM EDTA, and any remaining DNA sheared by passage of material through a 23 gauge needle and aliquots of enzyme were store at −80° C. prior to use.
(American Radiolabeled Chemicals; 1 mCi/ml) with FAAH (Life Sciences (1995), 56, 1999-2005 and Journal of Pharmacology and Experimented Therapeutics (1997), 283, 729-734), Analytical. Biochemistry (2003), 318, 270-5. In addition, routine assays were performed monitoring hydrolysis of arachidonyl-7-amino-4-methylcoumarin amide (AAMCA) by following increase in fluorescence upon release of 7-amino 4-methyl coumarin (λEX=355 nm, (λEM=460 nm). Analytical. Biochemistry (2005). 343, 143-51.
(§2) Assays are performed on either cell lysate or microsome fractions prepared as described or in whole cell format employing either the fluorescent substrate AAMCA (Cayman chemical, Ann Arbor, Mich.,) or ^3H-anandmaide ([ETHANOLAMINE-1-3H]American Radiolabeled Chemicals; 1 mCi/ml). The cell lysate or microsome assay is performed in Costar black wall, clear bottom plates by adding FAAH_CHO (whole cell, cell lysate or microsome) in assay buffer (50 mM Phosphate, pH 8.0, 1 mM EDTA, 200 mM KCl, 0.2% glycerol, 0.1% fatty acid free BSA) to each well, followed by either DMSO or compound and allowed to incubate at 22-25° C. for fifteen minutes. AAMCA substrate was used to achieve a final concentration of 1 μM and reaction allowed to proceed at room temperature for 1-3 hours. Fluorescent release as a measure of FAAH activity was monitored by reading the plate in a CytoFluor Multiplate Reader ([…]). Whole cell assay is conducted with cells harvested after rinsing tissue culture flasks three times with Ca^++Mg^++ free PBS, incubating for 10 mm in Enzyme free dissociation media and centrifuging for 5 minutes at 1,000 rpm in table top centrifuge. Cells are resuspended in assay buffer at desired cell number in (4×10^4 cells/assay in 96-well format; 1×10^4 cells/assay in 384-well format) and assayed as described.
Alternatively, assays are performed using anandamide [ethanolamine 1-^3H] (specific activity of 10 Ci/mmol) diluted with cold anandamide to achieve a final assay concentration of 1 μM anandamide (˜50,000 cpm). Enzyme (CHO cell lysate, brain or liver homogenate) is incubated in assay buffer (50 mM Phosphate, pH 8.0, 1 mM EDTA, 200 mM KCl, 0.2% glycerol, 0.1% fatty acid free BSA) with inhibitor at 25° C. for 30 minutes. The reaction was terminated by addition of 2 volumes of chloroform:methanol (1:1) and mixed by vortexing. […]

Assay [2] addresses T1, FAAH. Description: FAAH whole cell assay, CHO cells expressing human FAAH. In kind it is cell-based. To be noted: read-out: Human whole cell.
Text: as §1
(§3) Murine (accession number NM_010173) and Rat FAAH (accession number NM_024132) was amplified by reverse transcriptase polymerase chain reaction (RT-PCR) from brain cDNA (BD Biosciences, San Jose, Calif.) using primers 1 and 2 or primers 1 and 3 respectively (see Table). The resulting PCR product was ligated into pCR4TOPO and DNA sequence confirmed. The full length murine FAAH was subcloned into the mammalian expression vector, pcDEFneo using either EcoRI (murine) or KpnI and EcoRI (rat) restriction sites. Chinese hamster ovary cells (CHO) were transfected following manufacturers protocol (AMAXA). Forty eight hours post transfection, cells were trypsinized and transferred to 96 well plates in Iscove's DMEM media supplemented with 2 mM Glutamine, 10% fetal calf serum, 1 mg/ml geneticin and HT Supplement (0.1 mM sodium hypoxanthine, 0.016 mM thymidine) in order to isolate single clones. Following selection in geneticin, individual clones were selected and FAAH activity was assessed using a whole cell fluorescent anandamide assay, modified from Ramarao et al (2005). Following removal of tissue culture media cells were dislodged following addition of Cellstripper (Mediatech, Inc. Manassas, Va.) and transferred to 96 well black clear bottom assay plate, centrifuged at 1,000 rpm for 3 mins and media removed and replaced with assay buffer (50 mM Tris pH8.0, 1 mM EDTA, 0.1% fatty acid free BSA). The reaction was initiated by addition of fluorescent substrate, AMC Arachidonoyl Amide (Cayman Chemical, Ann Arbor, Mich.) to 1 μM and reaction allowed to proceed for 2 hours at room temperature. Release of fluorescence was monitored in a CytoFluor Multiplate Reader. Cells expressing the highest amount of FAAH activity were selected for study with FAAH inhibitors.
as §2

Assay [3] has as its target T2, FAAH (Rattus norvegicus, UniProt P97612).
T2 construct: expressed in transfected cells; cDNA by RT-PCR from brain cDNA (BD Biosciences)
T2 sequence (P97612 1-579): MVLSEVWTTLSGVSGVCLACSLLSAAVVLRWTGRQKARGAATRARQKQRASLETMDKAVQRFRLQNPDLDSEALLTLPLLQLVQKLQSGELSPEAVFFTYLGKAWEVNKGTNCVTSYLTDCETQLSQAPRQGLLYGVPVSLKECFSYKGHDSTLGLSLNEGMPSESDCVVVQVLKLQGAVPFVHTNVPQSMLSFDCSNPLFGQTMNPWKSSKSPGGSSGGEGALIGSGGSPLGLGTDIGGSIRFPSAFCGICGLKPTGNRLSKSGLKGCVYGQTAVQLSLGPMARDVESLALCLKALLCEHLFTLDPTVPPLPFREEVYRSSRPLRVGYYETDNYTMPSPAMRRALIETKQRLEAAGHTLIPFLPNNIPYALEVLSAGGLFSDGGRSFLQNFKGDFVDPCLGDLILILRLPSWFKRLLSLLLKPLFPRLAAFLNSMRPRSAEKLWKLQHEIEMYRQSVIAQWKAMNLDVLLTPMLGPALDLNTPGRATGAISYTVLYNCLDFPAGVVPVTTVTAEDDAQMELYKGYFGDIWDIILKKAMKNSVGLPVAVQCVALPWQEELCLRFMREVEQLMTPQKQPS
Description: FAAH whole cell assay, CHO cells expressing rat FAAH. It is filed as cell-based.
Text: as §3, §2

As for `CS(=O)(=O)c1ccc(-c2nn(C3CCCC3)cc2Sc2ccc(Cl)cc2)cc1` [Ex 23], the results for the IC50 at FAAH [1], at FAAH [2] and against FAAH [3] were 143 nM, 141 nM and 86 nM, respectively.
`CS(=O)(=O)c1ccc(-c2nn(-c3ccncc3)cc2Sc2ccc(Cl)cc2)cc1` [Ex 5]: the IC50 at FAAH [1] stood at 28 nM; on FAAH [2], 48 nM; against FAAH [3], 16 nM.
In the case of `CC(C)(O)c1cnc(-c2nn(-c3ccc(F)cn3)cc2Sc2ccc(Cl)cc2)cn1` [Example 229, 2-{5-[4-[(4-Chlorophenyl)thio]-1-(5-fluoropyridin-2-yl)-1H-pyrazol-3-yl}pyrazin-2-yl]propan-2-ol], the IC50 on FAAH [1] was determined as 26 nM; at FAAH [2] it was 66 nM; against FAAH [3] it was 18 nM.
In the same order, the values of `Clc1ccc(Sc2cn(-c3ccccc3)nc2-c2ccc(-c3c[nH]nn3)cc2)cc1` [Example 88, 4-(4-{4-[(4-Chlorophenyl)thio]-1-phenyl-1H-pyrazol-3-yl}phenyl)-1H-1,2,3-triazole] are 121 nM, 395 nM and 157 nM.
In the same order, the values of `O=C(NCCCl)c1ccc(-c2nn(-c3ccccc3)cc2Sc2ccc(Cl)cc2)cc1` [Example 121, N-(2-Chloroethyl)-4-{4-[(4-chlorophenyl)thio]-1-phenyl-1H-pyrazol-3-yl}benzamide] are 80 nM, 124 nM and 52 nM.
Regarding `CS(=O)(=O)c1ccc(-c2nn(-c3ccc(F)cc3)cc2Sc2ccc(Cl)cc2)cc1` [Ex 1], the IC50 on FAAH [1] worked out at 16 nM; at FAAH [2] it was 36 nM; on FAAH [3], 18 nM.
In the same order, the values of `[O-][n+]1cccc(-n2cc(Sc3ccc(Cl)cc3)c(-c3ccc(-c4ncon4)cc3)n2)c1` [Example 75] are 101 nM, 590 nM and 137 nM.
In the same order, the values of `CS(=O)(=O)c1ccc(-c2c(Sc3ccc(Cl)cc3)cnn2-c2ccc(F)cc2)cc1` [Ex 25, 4-[(4-Chlorophenyl)thio]-2-(4-fluorophenyl)-3-[4-(methylsulfonyl)phenyl]-1H-pyrazole] are 271 nM, 235 nM and 294 nM.

(Values after patent US20110144056A1, “PYRAZOLE DERIVATIVES USEFUL AS INHIBITORS OF FAAH” (priority 2008, published 2011).)
